Test results from US20230174538A1, “Tricyclic heterocycles” (Merck Patent GmbH, priority 2020, published 2023).

system: YAP-TEAD interaction; assay: SK-HEP-1 reporter assay (8xTEAD responsive elements driving NanoLuc luciferase); format: cell-based; details: Homo sapiens, SK-HEP1, SK-HEP-1 reporter assay
How it was run: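 Luminescence after NanoGlo addition gave reporter activity, and IC50 values came from duplicate 10-point curves (top final concentration 30 μM, 0.3% DMSO). The cells were SK-HEP-1 with a stably integrated 8×TEAD-driven NanoLuc gene, exposed to compound for 24 h at 37 °C.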

| Compound | IC50 |
| --- | --- |
| Cn1cc2c3cc(C(=O)N4CCCC(OCC5CC5)C4)ccc3n(-c3ccc(C(F)(F)F)cc3)c2n1 (stereo not drawn) [Example B62, 3-(cyclopropylmethoxy)-1-{2-methyl-8-[4-(trifluoromethyl)phenyl]-2H,8H-pyrazolo[3,4-b]indole-5-carbonyl}piperidine] | > 10000 nM |
| Cc1nnc2n1CCCC2NC(=O)c1ccc2c(c1)c1cn(C)nc1n2-c1ccc(C(F)(F)F)cc1 (stereo not drawn) [Example B64, 2-methyl-N-(3-methyl-5H,6H,7H,8H-[1,2,4]triazolo[4,3-a]pyridin-8-yl}-8-[4-(trifluoromethyl)phenyl]-2H,8H-pyrazolo[3,4-b]indole-5-carboxamide] | > 10000 nM |
| CN1CCN(C(=O)c2ccc3c(c2)c2cn(C)nc2n3-c2ccc(C(F)(F)F)cc2)CC1CO (stereo not drawn) [Example B65, (1-methyl-4-{2-methyl-8-[4-(trifluoromethyl)phenyl]-2H,8H-pyrazolo[3,4-b]indole-5-carbonyl}piperazin-2-yl)methanol] | > 10000 nM |
| Cc1nccc(C2(NC(=O)c3ccc4c(c3)c3cn(C)nc3n4-c3ccc(C(F)(F)F)cc3)CC2)n1 [Example B69, 2-methyl-N-[1-(2-methylpyrimidin-4-yl)cyclopropyl]-8-[4-(trifluoromethyl)phenyl]-2H,8H-pyrazolo[3,4-b]indole-5-carboxamide] | > 10000 nM |
| CC1COC(CO)CN1C(=O)c1ccc2c(c1)c1cn(C)nc1n2-c1ccc(C(F)(F)F)cc1 (stereo not drawn) [Example B72, (5-methyl-4-{2-methyl-8-[4-(trifluoromethyl)phenyl]-2H,8H-pyrazolo[3,4-b]indole-5-carbonyl}morpholin-2-yl)methanol] | 100 to 10000 nM |
| Cn1cc2c3cc(C(=O)NC45CC4COC5(C)C)ccc3n(-c3ccc(C(F)(F)F)cc3)c2n1 (stereo not drawn) [Example B73, N-(2,2-dimethyl-3-oxabicyclo[3.1.0]hexan-1-yl}-2-methyl-8-[4-(trifluoromethyl)phenyl]-2H,8H-pyrazolo[3,4-b]indole-5-carboxamide] | 100 to 10000 nM |
| Cn1cc2c3cc(C(=O)N4CCC(O)(c5c[nH]nn5)C4)ccc3n(-c3ccc(C(F)(F)F)cc3)c2n1 (stereo not drawn) [Example B74, 1-(2-methyl-8-[4-(trifluoromethyl)phenyl]-2H,8H-pyrazolo[3,4-b]indole-5-carbonyl}-3-(1H-1,2,3-triazol-4-yl)pyrrolidin-3-ol] | 100 to 10000 nM |
| Cn1cc2c3cc(C(=O)NCC4CC45CCOC5)ccc3n(-c3ccc(C(F)(F)F)cc3)c2n1 (stereo not drawn) [Example B75, 2-methyl-N-({5-oxaspiro[2.4]heptan-1-yl}methyl)-8-[4-(trifluoromethyl)phenyl]-2H,8H-pyrazolo[3,4-b]indole-5-carboxamide] | 100 to 10000 nM |
| Cc1noc(CC2(NC(=O)c3ccc4c(c3)c3cn(C)nc3n4-c3ccc(C(F)(F)F)cc3)CC2)n1 [Example B77, 2-methyl-N-{1-[(3-methyl-1,2,4-oxadiazol-5-yl)methyl]cyclopropyl}-8-[4-(trifluoromethyl)phenyl]-2H,8H-pyrazolo[3,4-b]indole-5-carboxamide] | > 10000 nM |
| CC1CN(CCNC(=O)c2ccc3c(c2)c2cn(C)nc2n3-c2ccc(C(F)(F)F)cc2)CCO1 (stereo not drawn) [Example B78, 2-methyl-N-[2-(2-methylmorpholin-4-yl)ethyl]-8-[4-(trifluoromethyl)phenyl]-2H,8H-pyrazolo[3,4-b]indole-5-carboxamide] | 100 to 10000 nM |
| CC(CCc1ccccn1)NC(=O)c1ccc2c(c1)c1cn(C)nc1n2-c1ccc(C(F)(F)F)cc1 (stereo not drawn) [Example B79, 2-methyl-N-[4-(pyridin-2-yl)butan-2-yl]-8-[4-(trifluoromethyl)phenyl]-2H,8H-pyrazolo[3,4-b]indole-5-carboxamide] | 100 to 10000 nM |
| Cn1cc2c3cc(C(=O)NC4(C5CCCO5)CCC4)ccc3n(-c3ccc(C(F)(F)F)cc3)c2n1 (stereo not drawn) [Example B81, 2-methyl-N-[1-(oxolan-2-yl)cyclobutyl]-8-[4-(trifluoromethyl)phenyl]-2H,8H-pyrazolo[3,4-b]indole-5-carboxamide] | 100 to 10000 nM |
| Cn1cc2c3cc(C(=O)NCc4cncn4CCF)ccc3n(-c3ccc(C(F)(F)F)cc3)c2n1 [Example B82, N-{[1-(2-fluoroethyl)-1H-imidazol-5-yl]methyl}-2-methyl-8-[4-(trifluoromethyl)phenyl]-2H,8H-pyrazolo[3,4-b]indole-5-carboxamide] | 100 to 10000 nM |
| COc1cc(C(C)NC(=O)c2ccc3c(c2)c2cn(C)nc2n3-c2ccc(C(F)(F)F)cc2)sn1 (stereo not drawn) [Example B83, N-[1-(3-methoxy-1,2-thiazol-5-yl)ethyl]-2-methyl-8-[4-(trifluoromethyl)phenyl]-2H,8H-pyrazolo[3,4-b]indole-5-carboxamide] | 100 to 10000 nM |
| Cn1cc2c3cc(C(=O)NCCc4cccc(F)n4)ccc3n(-c3ccc(C(F)(F)F)cc3)c2n1 [Example B84, N-[2-(6-fluoropyridin-2-yl)ethyl]-2-methyl-8-[4-(trifluoromethyl)phenyl]-2H,8H-pyrazolo[3,4-b]indole-5-carboxamide] | > 10000 nM |
| COCc1noc(C(C)NC(=O)c2ccc3c(c2)c2cn(C)nc2n3-c2ccc(C(F)(F)F)cc2)n1 (stereo not drawn) [Example B86, N-{1-[3-(methoxymethyl)-1,2,4-oxadiazol-5-yl]ethyl}-2-methyl-8-[4-(trifluoromethyl)phenyl]-2H,8H-pyrazolo[3,4-b]indole-5-carboxamide] | 100 to 10000 nM |
| Cn1cc2c3cc(C(=O)NC4C5CCOC5C4(C)C)ccc3n(-c3ccc(C(F)(F)F)cc3)c2n1 (stereo not drawn) [Example B87, N-(7,7-dimethyl-2-oxabicyclo[3.2.0]heptan-6-yl}-2-methyl-8-[4-(trifluoromethyl)phenyl]-2H,8H-pyrazolo[3,4-b]indole-5-carboxamide] | 100 to 10000 nM |
| CN(Cc1conc1C1CC1)C(=O)c1ccc2c(c1)c1cn(C)nc1n2-c1ccc(C(F)(F)F)cc1 [Example B88, N-[(3-cyclopropyl-1,2-oxazol-4-yl)methyl]-N,2-dimethyl-8-[4-(trifluoromethyl)phenyl]-2H,8H-pyrazolo[3,4-b]indole-5-carboxamide] | > 10000 nM |

Now from value to compound:

| IC50 | Compound |
| --- | --- |
| 100 to 10000 nM | Cc1cnc2n1CCC2NC(=O)c1ccc2c(c1)c1cn(C)nc1n2-c1ccc(C(F)(F)F)cc1 (stereo not drawn) [Example B57, 2-methyl-N-(3-methyl-5H,6H,7H-pyrrolo[1,2-a]imidazol-7-yl}-8-[4-(trifluoromethyl)phenyl]-2H,8H-pyrazolo[3,4-b]indole-5-carboxamide] |
| 1 to 10 nM | Cn1cc2c3cc(C(=O)NCC4=CCOCC4)ccc3n(-c3ccc(C(F)(F)F)cc3)c2n1 [Example B58, N-[(3,6-dihydro-2H-pyran-4-yl)methyl]-2-methyl-8-[4-(trifluoromethyl)phenyl]-2H,8H-pyrazolo[3,4-b]indole-5-carboxamide] |
| 100 to 10000 nM | Cc1c[nH]c(C2(NC(=O)c3ccc4c(c3)c3cn(C)nc3n4-c3ccc(C(F)(F)F)cc3)CCC2)n1 [Example B60, 2-methyl-N-[1-(4-methyl-1H-imidazol-2-yl)cyclobutyl]-8-[4-(trifluoromethyl)phenyl]-2H,8H-pyrazolo[3,4-b]indole-5-carboxamide] |
| 100 to 10000 nM | CC(NC(=O)c1ccc2c(c1)c1cn(C)nc1n2-c1ccc(C(F)(F)F)cc1)C(C)N1CCOCC1 (stereo not drawn) [Example B61, 2-methyl-N-[3-(morpholin-4-yl)butan-2-yl]-8-[4-(trifluoromethyl)phenyl]-2H,8H-pyrazolo[3,4-b]indole-5-carboxamide] |
| 100 to 10000 nM | Cn1cc2c3cc(C(=O)NCc4conc4C4CCC4)ccc3n(-c3ccc(C(F)(F)F)cc3)c2n1 [Example B63, N-[(3-cyclobutyl-1,2-oxazol-4-yl)methyl]-2-methyl-8-[4-(trifluoromethyl)phenyl]-2H,8H-pyrazolo[3,4-b]indole-5-carboxamide] |
| 100 to 10000 nM | Cc1cnn(CC(C)NC(=O)c2ccc3c(c2)c2cn(C)nc2n3-c2ccc(C(F)(F)F)cc2)c1 (stereo not drawn) [Example B66, 2-methyl-N-[1-(4-methyl-1H-pyrazol-1-yl)propan-2-yl]-8-[4-(trifluoromethyl)phenyl]-2H,8H-pyrazolo[3,4-b]indole-5-carboxamide] |
| 10 to 100 nM | Cn1cc2c3cc(C(=O)NCCc4ocnc4CO)ccc3n(-c3ccc(C(F)(F)F)cc3)c2n1 [Example B67, N-{2-[4-(hydroxymethyl)-1,3-oxazol-5-yl]ethyl}-2-methyl-8-[4-(trifluoromethyl)phenyl]-2H,8H-pyrazolo[3,4-b]indole-5-carboxamide] |
| 100 to 10000 nM | Cn1cc2c3cc(C(=O)NC4(c5cncn5C)CC4)ccc3n(-c3ccc(C(F)(F)F)cc3)c2n1 [Example B70, 2-methyl-N-[1-(1-methyl-1H-imidazol-5-yl)cyclopropyl]-8-[4-(trifluoromethyl)phenyl]-2H,8H-pyrazolo[3,4-b]indole-5-carboxamide] |
| 10 to 100 nM | CCC(NC(=O)c1ccc2c(c1)c1cn(C)nc1n2-c1ccc(C(F)(F)F)cc1)c1c(C)noc1C (stereo not drawn) [Example B71, N-[1-(3,5-dimethyl-1,2-oxazol-4-yl)propyl]-2-methyl-8-[4-(trifluoromethyl)phenyl]-2H,8H-pyrazolo[3,4-b]indole-5-carboxamide] |
| 10 to 100 nM | Cn1cc2c3cc(C(=O)NC4CCCn5nccc54)ccc3n(-c3ccc(C(F)(F)F)cc3)c2n1 (stereo not drawn) [Example B76, 2-methyl-N-(4H,5H,6H,7H-pyrazolo[1,5-a]pyridin-4-yl}-8-[4-(trifluoromethyl)phenyl]-2H,8H-pyrazolo[3,4-b]indole-5-carboxamide] |
| 10 to 100 nM | Cn1cc2c3cc(C(=O)NC4(Cc5nc[nH]n5)CC4)ccc3n(-c3ccc(C(F)(F)F)cc3)c2n1 [Example B80, 2-methyl-N-{1-[(1H-1,2,4-triazol-3-yl)methyl]cyclopropyl}-8-[4-(trifluoromethyl)phenyl]-2H,8H-pyrazolo[3,4-b]indole-5-carboxamide] |
| 1 to 10 nM | Cc1oc(C2CC2)nc1CNC(=O)c1ccc2c(c1)c1cn(C)nc1n2-c1ccc(C(F)(F)F)cc1 [Example B85, N-[(2-cyclopropyl-5-methyl-1,3-oxazol-4-yl)methyl]-2-methyl-8-[4-(trifluoromethyl)phenyl]-2H,8H-pyrazolo[3,4-b]indole-5-carboxamide] |
